Measured values taken from PMC8066402 (The AAPS journal, 2020).

Molecular target: T1, Monocarboxylate transporter 1 (MCT1) (Mus musculus, UniProt P53986)
T1 sequence (P53986 1-493): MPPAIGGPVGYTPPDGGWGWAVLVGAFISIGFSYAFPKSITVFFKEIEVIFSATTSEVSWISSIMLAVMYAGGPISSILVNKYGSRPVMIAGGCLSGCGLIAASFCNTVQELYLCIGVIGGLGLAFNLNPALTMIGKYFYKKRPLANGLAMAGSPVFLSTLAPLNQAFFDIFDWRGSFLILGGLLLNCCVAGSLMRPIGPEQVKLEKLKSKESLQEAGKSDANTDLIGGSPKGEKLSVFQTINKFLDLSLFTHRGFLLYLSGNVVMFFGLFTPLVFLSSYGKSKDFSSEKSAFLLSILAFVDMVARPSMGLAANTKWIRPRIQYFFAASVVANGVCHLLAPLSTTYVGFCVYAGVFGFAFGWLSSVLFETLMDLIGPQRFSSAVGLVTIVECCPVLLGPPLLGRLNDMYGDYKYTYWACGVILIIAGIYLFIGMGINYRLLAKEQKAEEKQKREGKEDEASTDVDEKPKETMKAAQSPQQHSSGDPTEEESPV
T1 sequence (P18572 22-389 partner): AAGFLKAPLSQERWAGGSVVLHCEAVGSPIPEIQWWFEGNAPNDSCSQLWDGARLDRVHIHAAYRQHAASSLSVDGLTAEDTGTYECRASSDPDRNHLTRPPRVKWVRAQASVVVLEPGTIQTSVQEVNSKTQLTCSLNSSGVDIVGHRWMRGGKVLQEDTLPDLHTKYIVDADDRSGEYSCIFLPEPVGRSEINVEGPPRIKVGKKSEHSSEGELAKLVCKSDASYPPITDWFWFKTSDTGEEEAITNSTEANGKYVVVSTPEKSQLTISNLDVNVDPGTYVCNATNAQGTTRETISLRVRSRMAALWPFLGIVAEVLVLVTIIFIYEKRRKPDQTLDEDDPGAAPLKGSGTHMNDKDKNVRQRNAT
Test: inhibition of radiolabeled L-lactate uptake in 4T1 cells
Type: cell-based

Row | Compound | IC50
1 | Cc1[nH]nc(C(F)(F)F)c1Cc1sc2c(c1C(=O)N1C[C@](C)(O)CO1)c(=O)n(C)c(=O)n2C(C)C [AZD3965] | 1.7e-05 ± 3.6e-06 mM
2 | N#C/C(=C\c1ccc(O)cc1)C(=O)O [CHC, α-cyano-4-hydroxycinnamic acid] | 7.57 ± 15.2 mM
